The target of data set [1] is T1, IP receptor (Homo sapiens, UniProt P43119).
T1 construct: one million cells in 160 μl aliquot of cell suspension were put in a well of 96 well plate; host or cells: HEL 92.1.7 human erythroleukemia cells (whole cells)
Put plainly: IP receptor binding/cAMP in HEL cells ([3H]-iloprost binding, Assay 1; iloprost-induced cAMP production, Assay 2). Particulars: compounds of about 40 to 90% purity, read-out: In vitro activity grade (IC50 class). Here is the method:
[Measurement of the [^3H]-iloprost Binding to HEL Cells] (Assay 1)
A human erythloleukemia cell line, HEL 92.1.7, was purchased from American Type Culture Correction and maintained in RPMI-1640 medium (Gibco BRL) supplemented with 10% fetal calf serum (FCS), 2 mM glutamine, 4.5 g/L glucose, 10 mM Hepes, 1 mM sodium pyruvate, 100 U/ml penicillin, and 100 μg/ml streptomycin in a humidified 5% CO2 atmosphere at 37° C. Cells were collected with centrifugation and washed with binding assay buffer (BAB: 50 mM Tris-HCl, 5 mM MgCl2 (pH 7.5)). Cells were suspended at the density of 6.25×10^6 cells/ml in BAB, and one million cells in 160 μl aliquot of cell suspension were put in a well of 96 well plate (Falcon). Then, 20 μl of compound solution, 100 μM of iloprost (for non-specific binding), or buffer alone (total binding), diluted with 1% DMSO in BAB was added. Finally, another 20 μl containing [^3H]-iloprost (0.02 μCi, 0.5-1 pmol) in BAB was added and incubated at room temperature for 30 min with a gentle shaking. Cell suspension was then transferred to a well of MultiScreen plate with GF/C glass filters (Millipore) to harvest cells. Cells were washed twice with 200 μl of ice-cold BAB and the plate was kept at 55° C. for 30 min to dry filters. The filter in the well was punched out to a counting tube and 2 ml of Ultima Gold XR (Packard) was added. [^3H]-radio activity in the filter was measured by a liquid scintillation counter (Beckman, USA).
[Iloprost-Induced cAMP Production Assay in HEL Cells] (Assay 2)
HEL cells were collected with centrifugation and washed with cAMP assay buffer (CAB: Hank's balanced salt solution, 17 mM Hepes, 0.1% bovine serum albumin, 1 mM IBMX, 0.4% DMSO, and 1 mM L-ascorbic acid sodium salt (pH 7.4)). Cells were suspended at the density of 2.5×10^5 cells/ml in CAB, and twenty thousand cells in 80 μl aliquot of cell suspension were put in a well of 96 well plate (Falcon). Then, 10 μl of compound solution diluted with 1% DMSO in CAB or buffer alone was added. The plate was incubated at 37° C. for 30 min. Then, another 10 μl containing 100 nM iloprost in CAB or buffer alone was added and further incubated at 37° C. for 30 min. cAMP content in the well was measured by a cAMP ELISA kit (Applied Biosystems, USA).
The data corresponds to the compounds as yielded by solid phase synthesis and thus to levels of purity of about 40 to 90%. For practical reasons, the compounds are grouped in three classes of activity as follows: IC50=A<0.1 μM≦B<1 μM≦C
On the technique in general: cAMP levels reflect the balance of adenylyl cyclase and phosphodiesterase activity.

A value given as a limit tells only on which side of the number the result lay.

T1 sequence (P43119 whole entry): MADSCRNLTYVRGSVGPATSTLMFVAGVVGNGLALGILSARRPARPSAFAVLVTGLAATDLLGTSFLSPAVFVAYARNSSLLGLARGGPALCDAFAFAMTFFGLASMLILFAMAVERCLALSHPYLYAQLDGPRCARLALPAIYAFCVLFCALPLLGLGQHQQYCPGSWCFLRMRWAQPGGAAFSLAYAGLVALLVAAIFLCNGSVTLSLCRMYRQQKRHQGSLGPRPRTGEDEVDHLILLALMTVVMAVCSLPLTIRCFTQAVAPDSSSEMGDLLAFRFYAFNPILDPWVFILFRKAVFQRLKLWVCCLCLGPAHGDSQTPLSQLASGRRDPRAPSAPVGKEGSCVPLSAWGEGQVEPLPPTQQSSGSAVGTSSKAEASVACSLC

Usually IC50 stands for the midpoint of a concentration-inhibition curve. As usually defined, the melting point is the temperature, or range, at which the solid turns liquid. `O=C(O)C(Cc1ccccc1)Nc1cc(-c2ccc(OCc3ccccc3)cc2)ncn1` (stereo not shown) [Example 1-7]: the melting point lay within 175 to 178 °C. The concentration for half-maximal inhibition (IC50) in data set [1] was below 100 nM.
With `O=C(O)C(Cc1ccccc1)Nc1cc(-c2ccc(Oc3ccccc3)cc2)ncn1` (stereo not shown) [Example 1-8], the melting point was 214 to 217 °C (dec.). Further, the half-maximal inhibitory concentration (IC50) in data set [1] is below 100 nM.
With `O=C(O)C(Cc1ccccc1)Nc1ncnc(-c2ccc(OCc3ccccc3)cc2)c1[N+](=O)[O-]` (stereo not shown) [Example 1-9], the melting point is below 80 °C. Also, the IC50 in data set [1] is above 1000 nM.
`O=C(O)C(Cc1ccccc1)Nc1cc(-c2ccc(-c3ccccc3)cc2)ncn1` (stereo not shown) [Example 1-10]: the melting point is 146 to 148 °C (dec.). Also, in data set [1], the IC50 was below 100 nM.
`CCC(C)C(Nc1cc(-c2ccc(OCc3ccccc3)cc2)ncn1)C(=O)O` (stereo not shown) [Example 1-11] registered a melting point of 56 °C. In data set [1], the IC50 lay within 100 to 1000 nM.
The matching figures for `O=C(O)C(Cc1ccc(F)cc1)Nc1cc(-c2ccc(OCc3ccccc3)cc2)ncn1` (stereo not shown) [Example 1-12]: 186 °C and below 100 nM.
The matching figures for `CCCCC(Nc1cc(-c2ccc(OCc3ccccc3)cc2)ncn1)C(=O)O` (stereo not shown) [Example 1-13]: 187 °C and below 100 nM.
For `O=C(O)C(CCc1ccccc1)Nc1cc(-c2ccc(OCc3ccccc3)cc2)ncn1` (stereo not shown) [Example 1-14], in that order: 226 to 228 °C and below 100 nM.
`CC(C)CC(Nc1cc(-c2ccc(OCc3ccccc3)cc2)ncn1)C(=O)O` (stereo not shown) [Example 1-15] displayed a melting point of 244 to 246 °C. In addition, the IC50 in data set [1] fell in the range of 100 to 1000 nM.
For `CC(C)C(Nc1cc(-c2ccc(OCc3ccccc3)cc2)ncn1)C(=O)O` (stereo not shown) [Example 1-16], in that order: 235 to 237 °C and 100 to 1000 nM.
`CSCCC(Nc1cc(-c2ccc(OCc3ccccc3)cc2)ncn1)C(=O)O` (stereo not shown) [Example 1-17] yielded a melting point of 210 °C. Also, the half-inhibitory concentration (IC50) in data set [1] is below 100 nM.
The matching figures for `CC(Nc1cc(-c2ccc(OCc3ccccc3)cc2)ncn1)C(=O)O` (stereo not shown) [Example 1-18]: 158 °C and 100 to 1000 nM.
Turning to `CC(Cc1ccccc1)(Nc1cc(-c2ccc(OCc3ccccc3)cc2)ncn1)C(=O)O` (stereo not shown) [Example 1-19], the melting point is 187 °C. Also, in data set [1], the IC50 was below 100 nM.
For `O=C(O)C(Cc1ccccc1)Nc1ncnc(-c2ccc(OCc3ccccc3)cc2)c1F` (stereo not shown) [Example 1-20], in that order: 145 to 146 °C and below 100 nM.
As for `O=C(O)C(Cc1ccc(Cl)cc1)Nc1cc(-c2ccc(OCc3ccccc3)cc2)ncn1` (stereo not shown) [Example 1-22], the melting point is 150 to 153 °C (dec.). For the same compound, the IC50 in data set [1] is below 100 nM.
Compound `C#CCC(Nc1cc(-c2ccc(OCc3ccccc3)cc2)ncn1)C(=O)O` (stereo not shown) [Example 1-23] displayed a melting point of 155 °C. Further, the IC50 in data set [1] was below 100 nM.
`CS(=O)(=O)CCC(Nc1cc(-c2ccc(OCc3ccccc3)cc2)ncn1)C(=O)O` (stereo not shown) [Example 1-24] showed a melting point of 138 °C. In addition, the IC50 in data set [1] fell in the range of 100 to 1000 nM.
The compound `O=C(O)C(Cc1ccc([N+](=O)[O-])cc1)Nc1cc(-c2ccc(OCc3ccccc3)cc2)ncn1` (stereo not shown) [Example 1-25] gave a melting point of 211 °C. The IC50 in data set [1] was below 100 nM.
The matching figures for `O=C(O)C(Cc1ccc(O)cc1)Nc1cc(-c2ccc(OCc3ccccc3)cc2)ncn1` (stereo not shown) [Example 1-26]: 233 to 236 °C and below 100 nM.
`CC(O)C(Nc1cc(-c2ccc(OCc3ccccc3)cc2)ncn1)C(=O)O` (stereo not shown) [Example 1-27] registered a melting point of 211 to 214 °C. Besides, in data set [1], the IC50 lay within 100 to 1000 nM.
The matching figures for `C=CCC(Nc1cc(-c2ccc(OCc3ccccc3)cc2)ncn1)C(=O)O` (stereo not shown) [Example 1-28]: 135 to 137 °C and below 100 nM.
On to `Nc1ccc(CC(Nc2cc(-c3ccc(OCc4ccccc4)cc3)ncn2)C(=O)O)cc1` (stereo not shown) [Example 1-29], for which the melting point was determined as 145 °C. The half-maximal inhibitory concentration (IC50) in data set [1] is below 100 nM.
For `O=C(O)C(Cc1ccccc1)Nc1ncnc(-c2ccc(OCc3ccccc3)cc2)n1` (stereo not shown) [Example 1-30], in that order: 186 to 188 °C and below 100 nM.
Turning to `O=C(O)C(Cc1ccccn1)Nc1cc(-c2ccc(OCc3ccccc3)cc2)ncn1` (stereo not shown) [Example 1-31], the melting point was in the range of 218 to 223 °C. Further, in data set [1], the IC50 was below 100 nM.
The compound `O=C(O)C(CC(F)(F)F)Nc1cc(-c2ccc(OCc3ccccc3)cc2)ncn1` (stereo not shown) [Example 1-32] yielded a melting point of 156 to 158 °C. The IC50 in data set [1] was below 100 nM.
The matching figures for `O=C(O)C(COCc1ccccc1)Nc1cc(-c2ccc(OCc3ccccc3)cc2)ncn1` (stereo not shown) [Example 1-33]: 132 to 135 °C and below 100 nM.
`COCC(Nc1cc(-c2ccc(OCc3ccccc3)cc2)ncn1)C(=O)O` (stereo not shown) [Example 1-34] displayed a melting point of 115 to 120 °C. Also, the half-maximal inhibitory concentration (IC50) in data set [1] is below 100 nM.
In turn, `CC(Cc1cccc(O)c1)(Nc1cc(-c2ccc(OCc3ccccc3)cc2)ncn1)C(=O)O` (stereo not shown) [Example 1-35] gave a melting point of 265 to 267 °C. For the same compound, the IC50 in data set [1] was above 1000 nM.
The matching figures for `O=C(O)C(Cc1ccccc1)Nc1ncnc(-c2ccc(OCC3CC3)cc2)c1F` (stereo not shown) [Example 1-36]: 170 to 173 °C and below 100 nM.
The matching figures for `O=C(O)C(Cc1c[nH]cn1)Nc1cc(-c2ccc(OCc3ccccc3)cc2)ncn1` (stereo not shown) [Example 1-39]: 183 to 188 °C and 100 to 1000 nM.
As for `O=C(O)C(Cc1ccc(Cl)cc1)Nc1cc(-c2ccc(OCC3CC3)cc2)ncn1` (stereo not shown) [Example 1-40], the melting point lay in the range of 166 to 169 °C. Further, in data set [1], the IC50 was below 100 nM.
`CCCCC(Nc1cc(-c2ccc(OCC3CC3)cc2)ncn1)C(=O)O` (stereo not shown) [Example 1-41] had a melting point of 100 to 104 °C. The IC50 in data set [1] is 100 to 1000 nM.
The matching figures for `O=C(O)C(Cc1ccc(F)cc1)Nc1cc(-c2ccc(OCC3CC3)cc2)ncn1` (stereo not shown) [Example 1-42]: 126 to 128 °C and below 100 nM.
For `O=C(O)C(Cc1ccccc1)Nc1cc(-c2cccc(OCc3ccccc3)c2)ncn1` (stereo not shown) [Example 1-43], in that order: 150 to 152 °C and above 1000 nM.
Regarding `O=C(O)C(Cc1ccccn1)Nc1cc(-c2ccc(OCC3CC3)cc2)ncn1` (stereo not shown) [Example 1-44], the melting point lay within 105 to 107 °C. Moreover, the IC50 in data set [1] was in the range of 100 to 1000 nM.
As to `O=C(O)C(Cc1ccccn1)Nc1ncnc(-c2ccc(OCc3ccccc3)cc2)c1F` (stereo not shown) [Example 1-45], the melting point lay within 177 to 178 °C. Further, the IC50 in data set [1] is below 100 nM.
In the case of `O=C(O)C(Cc1ccccn1)Nc1cc(-c2ccc(OCc3ccccc3)c(F)c2)ncn1` (stereo not shown) [Example 1-46], the melting point worked out at 107 °C. Besides, the IC50 in data set [1] was below 100 nM.
`O=C(O)C(Cc1ccccc1)Nc1cc(-c2ccc(OCc3ccccc3)c(F)c2)ncn1` (stereo not shown) [Example 1-47]: the melting point lay within 117 to 120 °C. In addition, the IC50 in data set [1] is below 100 nM.
For `O=C(O)C(Cc1cccnc1)Nc1cc(-c2ccc(OCc3ccccc3)cc2)ncn1` (stereo not shown) [Example 1-48], in that order: 188 to 192 °C and below 100 nM.
The compound `O=C(O)[C@H](Cc1ccccc1)Nc1cc(-c2ccc(OCC3CC3)cc2)ncn1` [Example 1-49] yielded a melting point of 180 to 185 °C. Also, in data set [1], the concentration for half-maximal inhibition (IC50) is above 1000 nM.
The compound `O=C(O)[C@H](Cc1ccccc1)Nc1cc(-c2ccc(OCc3ccccc3)cc2)ncn1` [Example 1-50] returned a melting point of 150 to 155 °C. In addition, in data set [1], the half-maximal inhibitory concentration (IC50) fell in the range of 100 to 1000 nM.
`CCCCC(Nc1cc(-c2ccc(-c3ccccc3)cc2)ncn1)C(=O)O` (stereo not shown) [Example 1-56] came in with a melting point of 110 to 120 °C. Also, the IC50 in data set [1] was in the range of 100 to 1000 nM.
The matching figures for `O=C(O)C(Cc1ccccc1)Nc1cc(-c2ccc(OCc3ccccc3)cc2F)ncn1` (stereo not shown) [Example 1-57]: 133 to 136 °C and 100 to 1000 nM.
The matching figures for `CN(c1cc(-c2ccc(OCc3ccccc3)cc2)ncn1)C(Cc1ccccc1)C(=O)O` (stereo not shown) [Example 1-58]: 112 to 115 °C and below 100 nM.

(Values after patent US20060089371A1, “Phenyl or heteroaryl amino alkane derivatives as ip receptor antagonist” (Bayer HealthCare AG, priority 2002, published 2006).)
